Drawing on patent publication US9540384B2, “Pyrrolidino heterocycles” (Hoffmann-La Roche Inc., priority 2012, dated 2017), this text covers IC50 for 36 compounds.

SMILES strings stand for the structures. Structures can show the parent of a compound that is named as a salt.

Chain of human PDE10A full length (Q9Y233 other isoform, or with tags, fused parts or gaps): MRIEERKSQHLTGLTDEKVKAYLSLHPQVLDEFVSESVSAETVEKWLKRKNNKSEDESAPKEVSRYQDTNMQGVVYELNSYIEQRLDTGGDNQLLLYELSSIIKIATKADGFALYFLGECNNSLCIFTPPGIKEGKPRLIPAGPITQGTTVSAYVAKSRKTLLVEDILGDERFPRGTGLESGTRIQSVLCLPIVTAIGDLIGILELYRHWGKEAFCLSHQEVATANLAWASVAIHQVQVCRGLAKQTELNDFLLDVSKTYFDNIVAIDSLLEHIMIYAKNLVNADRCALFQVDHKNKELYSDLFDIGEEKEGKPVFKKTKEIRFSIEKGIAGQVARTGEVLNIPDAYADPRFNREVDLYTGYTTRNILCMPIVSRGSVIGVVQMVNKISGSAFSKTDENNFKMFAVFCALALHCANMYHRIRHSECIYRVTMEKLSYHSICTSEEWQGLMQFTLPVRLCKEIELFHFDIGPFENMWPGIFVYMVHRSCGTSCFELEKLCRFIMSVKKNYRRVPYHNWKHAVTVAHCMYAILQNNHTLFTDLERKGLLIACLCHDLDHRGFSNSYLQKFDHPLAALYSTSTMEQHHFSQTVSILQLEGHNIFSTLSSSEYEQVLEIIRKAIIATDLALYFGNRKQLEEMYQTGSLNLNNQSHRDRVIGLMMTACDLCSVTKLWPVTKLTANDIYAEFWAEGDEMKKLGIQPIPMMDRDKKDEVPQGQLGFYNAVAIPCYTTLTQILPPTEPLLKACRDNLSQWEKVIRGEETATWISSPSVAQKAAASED

The assay addresses human PDE10A full length (Homo sapiens (Human), UniProt Q9Y233). Nature of the assay: human PDE10A full length Scintillation Proximity Assay (SPA). The following applies: PDE10A enzyme, 50 nM cGMP + 50 nM [3H]-cGMP, 20 minutes at room temperature. The format is biochemical. How it is done:
The following test was carried out in order to determine the activity of the compounds of the present invention. PDE10 activity of the compounds of the present invention was determined using a Scintillation Proximity Assay (SPA)-based method similar to the one previously described (Fawcett, L. et al., Proc Natl Acad Sci USA (2000) 97(7):3702-3707).
The human PDE10A full length assay was performed in 96-well micro titer plates. The reaction mixture of 50 μl contained 20 mM HEPES pH=7.5/10 mM MgCl2/0.05 mg/ml BSA (Sigma cat. #A-7906), 50 nM cGMP (Sigma, cat. #G6129) and 50 nM [3H]-cGMP (GE Healthcare, cat. #TRK392 S.A. 13.2 Ci/mmol), 3.75 ng/well PDE10A enzyme (Enzo Life Science, Lausen, Switzerland cat #SE-534) with or without a specific test compound. A range of concentrations of the potential inhibitor was used to generate data for calculating the concentration of inhibitor resulting in 50% of the effect (e.g. IC50, the concentration of the competitor inhibiting PDE10A activity by 50%). Non-specific activity was tested without the enzyme. The reaction was initiated by the addition of the substrate solution (cGMP and [3H]-cGMP) and allowed to progress for 20 minutes at room temperature. The reaction was terminated by adding 25 μl of YSi-SPA scintillation beads (GE Healthcare, cat. #RPNQ0150) in 18 mM zinc sulphate solution (stop reagent). After 1 h under shaking, the plate was centrifuged one minute at 170 g to allow beads to settle. Afterwards, radioactive counts were measured on a Perkin Elmer TopCount Scintillation plate reader.
For orientation: SPA uses beads or plates that emit light when radiolabelled molecules are held near them.
What is called IC50 is the concentration that inhibits the measured activity by half. For `Cc1cc(C)n2nc(/C=C/c3cccc(N4CCCC4)n3)nc2n1` [Example 47, (E)-5,7-Dimethyl-2-(2-(6-(pyrrolidin-1-yl)pyridin-2-yl)vinyl)[1,2,4]triazolo[1,5-a]pyrimidine], the IC50 worked out at 0.031 µM.
Regarding `Cc1cccc2c(=O)[nH]c(CCc3cccc(N4CCCC4)n3)nc12` [Example 37, 8-methyl-2-(2-(6-(pyrrolidin-1-yl)pyridin-2-yl)ethyl)quinazolin-4(3H)-one], the IC50 is 3.27 µM.
With `Cc1nc2ccccc2nc1OCc1cccc(N2CCCC2)n1` [Example 9, 2-Methyl-3-((6-(pyrrolidin-1-yl)pyridin-2-yl)methoxy)quinoxaline], the IC50 was 0.03 µM.
For `O=c1[nH]c(CCc2cccc(N3CCCC3)n2)nc2cccc(Cl)c12` [Example 26, 5-Chloro-2-(2-(6-(pyrrolidin-1-yl)pyridin-2-yl)ethyl)quinazolin-4(3H)-one] the value was 0.4 µM; for `CN(C)c1nc(CCc2cccc(N3CCC(CO)C3)n2)nc2ccccc12` (stereo not drawn) [Example 34, (1-(6-(2-(4-(Dimethylamino)quinazolin-2-yl)ethyl)pyridin-2-yl)pyrrolidin-3-yl)methanol], 1.63 µM; for `Cc1nc2ccccc2nc1CCc1cccc(N2CCCC2)n1` [Example 11, 2-Methyl-3-[2-(6-pyrrolidin-1-yl-pyridin-2-yl)-ethyl]-quinoxaline], 0.12 µM.
For the compound `Cc1ncc(C)n2nc(CCc3cncc(N4CCCC4)n3)nc12` [Example 51, 5,8-Dimethyl-2-(2-(6-(pyrrolidin-1-yl)pyrazin-2-yl)ethyl)-[1,2,4]triazolo[1,5-a]pyrazine], the IC50 was 0.14 µM.
For `Cc1nn2ccc(CCc3cccc(N4CCCC4)n3)nc2c1C` [Example 58, 2,3-Dimethyl-5-(2-(6-(pyrrolidin-1-yl)pyridin-2-yl)ethyl)pyrazolo[1,5-a]pyrimidine] the value was 0.3 µM; for `COc1c(C)cnc(/C=C/c2cccc(N3CCOCC3)n2)c1C` [Example 2, (E)-4-(6-(2-(4-Methoxy-3,5-dimethylpyridin-2-yl)vinyl)pyridin-2-yl)morpholine], 8 µM; for `CCc1nc2ccc(OCc3cccc(N4CCCC4)n3)nn2c1C` [Example 52, 2-Ethyl-3-methyl-6-((6-(pyrrolidin-1-yl)pyridin-2-yl)methoxy)imidazo[1,2-b]pyridazine], 0.54 µM.
For `Clc1ccc2nc(/C=C/c3cccc(N4CCCC4)n3)nc(N3CCOCC3)c2c1` [Example 19, (E)-4-(6-Chloro-2-(2-(6-(pyrrolidin-1-yl)pyridin-2-yl)vinyl)quinazolin-4-yl)morpholine] the value was 0.0063 µM; for `Cn1cc(-c2ccccc2)nc1CCc1cncc(N2CCCN2)n1` [Example 14, 2-(2-(1-Methyl-4-phenyl-1H-imidazol-2-yl)ethyl)-6-(pyrazolidin-1-yl)pyrazine hydrochloride], 0.12 µM.
For `Cn1cc(-c2ccccc2)nc1CCc1cccc(N2CCOCC2)n1` [Example 7, 4-(6-(2-(1-Methyl-4-phenyl-1H-imidazol-2-yl)ethyl)pyridin-2-yl)morpholine] the value was 3.14 µM; for `CC1CCC(C)N1c1cccc(CCc2nc(N(C)C)c3ccccc3n2)n1` (stereo not drawn) [Example 30, 2-(2-(6-(2,5-Dimethylpyrrolidin-1-yl)pyridin-2-yl)ethyl)-N,N-dimethylquinazolin-4-amine], 2.3 µM; for `Cc1oc(-c2ccccc2)nc1CCc1cccc(N2CCCC2)n1` [Example 12, 2-[2-(5-Methyl-2-phenyl-oxazol-4-yl)-ethyl]-6-pyrrolidin-1-yl-pyridine], 2 µM.
As for `Cc1cc(C)n2nc(CCc3cccc(N4CCCC4)n3)nc2n1` [Example 48, 5,7-Dimethyl-2-[2-(6-pyrrolidin-1-yl-pyridin-2-yl)-ethyl]-[1,2,4]triazolo[1,5-a]pyrimidine], the half-maximal inhibitory concentration (IC50) was 0.11 µM.
In the case of `CN(C)c1nc(/C=C/c2cccc(N3CCCC3=O)n2)nc2ccc(Cl)cc12` [Example 36, (E)-1-(6-(2-(6-chloro-4-(dimethylamino)quinazolin-2-yl)vinyl)pyridin-2-yl)pyrrolidin-2-one], the IC50 was found to be 0.82 µM.
For `O=c1[nH]c(CCc2cccc(N3CCCC3)n2)nc2ccc(Cl)cc12` [Example 29, 6-Chloro-2-(2-(6-(pyrrolidin-1-yl)pyridin-2-yl)ethyl)quinazolin-4(3H)-one], the IC50 came to 0.1 µM.
For `Cc1nc2ccc(CCc3cccc(N4CCCC4)n3)nn2c1C` [Example 49, 2,3-Dmethyl-6-(2-(6-(pyrrolidin-1-yl)pyridin-2-yl)ethyl)imidazo[1,2-b]pyridazine] the value was 0.63 µM.
For `Cc1cc(C)n2nc(CCc3cncc(N4CCCC4)n3)nc2n1` [Example 46, 5,7-Dimethyl-2-(2-(6-(pyrrolidin-1-yl)pyrazin-2-yl)ethyl)-[1,2,4]triazolo-[1,5-a]pyrimidine] the value was 0.3 µM.
For `c1cc(CCc2nc(N3CCOCC3)c3ccccc3n2)nc(N2CCCC2)c1` [Example 21, 4-(2-(2-(6-(Pyrrolidin-1-yl)pyridin-2-yl)ethyl)quinazolin-4-yl)morpholine] the value was 0.046 µM.
`COc1c(C)cnc(/C=C/c2cccc(N3CCCC3)n2)c1C` [Example 3, (E)-4-methoxy-3,5-dimethyl-2-(2-(6-(pyrrolidin-1-yl)pyridin-2-yl)vinyl)pyridine]: the IC50 is 0.79 µM.
Consider `CNc1cccc(CCc2nc(-c3ccccc3)cn2C)n1` [Example 4, Methyl-{6-[2-(1-methyl-4-phenyl-1H-imidazol-2-yl)-ethyl]-pyridin-2-yl}-amine], for which the IC50 was found to be 4.06 µM.
On to `Cc1nn2ccc(OCc3cccc(N4CCCC4)n3)nc2c1C` [Example 53, 2,3-Dimethyl-5-((6-(pyrrolidin-1-yl)pyridin-2-yl)methoxy)pyrazolo[1,5-a]pyrimidine], for which the half-maximal inhibitory concentration (IC50) worked out at 0.069 µM.
On to `Cn1ncc2c(N3CCOCC3)nc(OCc3cccc(N4CCCC4)n3)nc21` [Example 18, 4-(1-Methyl-6-((6-(pyrrolidin-1-yl)pyridin-2-yl)methoxy)-1H-pyrazolo-[3,4-d]pyrimidin-4-yl)morpholine], for which the IC50 was determined as 0.276 µM.
As for `c1cncc(-c2nc(OCc3cccc(N4CCCC4)n3)cc(N3CCOCC3)n2)c1` [Example 24, 4-(2-(Pyridin-3-yl)-6-((6-(pyrrolidin-1-yl)pyridin-2-yl)methoxy)-pyrimidin-4-yl)morpholine], the IC50 came to 1.63 µM.
For `Cc1cc(N2CCCC2)nc(/C=C/c2ccc3ccccc3n2)n1` [Example 1, (E)-2-[2-(4-Methyl-6-pyrrolidin-1-yl-pyrimidin-2-yl)-vinyl]-quinoline] the value was 0.53 µM; for `CN(C)c1nc(/C=C/c2cccc(N3CCC(CO)C3)n2)nc2ccc(Cl)cc12` (stereo not drawn) [Example 25, (E)-(1-(6-(2-(6-Chloro-4-(dimethylamino)quinazolin-2-yl)vinyl)pyridin-2-yl)pyrrolidin-3-yl)methanol], 0.22 µM.
As to `CC1CCCN1c1cccc(/C=C/c2nc(N(C)C)c3cc(Cl)ccc3n2)n1` (stereo not drawn) [Example 35, (E)-6-Chloro-N,N-dimethyl-2-(2-(6-(2-methylpyrrolidin-1-yl)pyridin-2-yl)vinyl)quinazolin-4-amine], the IC50 was found to be 0.027 µM.
Consider `Cc1nc2ccccc2nc1/C=C/c1cccc(N2CCCC2)n1` [Example 10, 2-Methyl-3-[(E)-2-(6-pyrrolidin-1-yl-pyridin-2-yl)-vinyl]-quinoxaline], for which the IC50 was 0.09 µM.
`CN(C)c1nc(CCc2cccc(N3CCC(O)C3)n2)nc2ccccc12` (stereo not drawn) [Example 32, 1-(6-(2-(4-(Dimethylamino)quinazolin-2-yl)ethyl)pyridin-2-yl)-pyrrolidin-3-ol]: the IC50 is 0.48 µM.
`Cn1cc(-c2ccccc2)nc1CCc1cccc(N2CCCC2)n1` [Example 6, 2-(2-(1-Methyl-4-phenyl-1H-imidazol-2-yl)ethyl)-6-(pyrrolidin-1-yl)pyridine]: the IC50 is 1.84 µM.
For `CN(C)c1nc(OCc2cccc(N3CCCC3)n2)nc2ccc(Cl)cc12` [Example 17, 6-Chloro-N,N-dimethyl-2-((6-(pyrrolidin-1-yl)pyridin-2-yl)methoxy)quinazolin-4-amine] the value was 0.007 µM; for `Clc1ccc2nc(OCc3cccc(N4CCCC4)n3)nc(N3CCOCC3)c2c1` [Example 13, 4-(6-Chloro-2-((6-(pyrrolidin-1-yl)pyridin-2-yl)methoxy)quinazolin-4-yl)morpholine], 0.0025 µM.
On to `COc1c(Cl)ccc2nc(CCc3cccc(N4CCCC4)n3)[nH]c(=O)c12` [Example 27, 6-Chloro-5-methoxy-2-(2-(6-(pyrrolidin-1-yl)pyridin-2-yl)ethyl)-quinazolin-4(3H)-one], for which the IC50 was determined as 0.47 µM.
With `Cc1c(C(F)(F)F)nc2ccc(NCc3cccc(N4CCCC4)n3)nn12` [Example 57, 3-Methyl-N-((6-(pyrrolidin-1-yl)pyridin-2-yl)methyl)-2-(trifluoromethyl)imidazo[1,2-b]pyridazin-6-amine], the IC50 was found to be 0.2 µM.
